A word on the pIC50: it is the IC50 on a negative log10 scale, so that one unit is a factor of ten. Read a high pIC50 as a small IC50. The IC50 is the midpoint of a concentration-inhibition curve. Low values mean inhibition by little substance, high ones a need for much substance.

pIC50: −log10 of the molar value. Some results are limits rather than exact numbers.

Here are results for 30 compounds from US9169260B2 (MERCK SHARP & DOHME CORP., priority 2011, dated 2015).

Sequence of GST tagged IRAK-4 (Q9NWZ3 whole entry): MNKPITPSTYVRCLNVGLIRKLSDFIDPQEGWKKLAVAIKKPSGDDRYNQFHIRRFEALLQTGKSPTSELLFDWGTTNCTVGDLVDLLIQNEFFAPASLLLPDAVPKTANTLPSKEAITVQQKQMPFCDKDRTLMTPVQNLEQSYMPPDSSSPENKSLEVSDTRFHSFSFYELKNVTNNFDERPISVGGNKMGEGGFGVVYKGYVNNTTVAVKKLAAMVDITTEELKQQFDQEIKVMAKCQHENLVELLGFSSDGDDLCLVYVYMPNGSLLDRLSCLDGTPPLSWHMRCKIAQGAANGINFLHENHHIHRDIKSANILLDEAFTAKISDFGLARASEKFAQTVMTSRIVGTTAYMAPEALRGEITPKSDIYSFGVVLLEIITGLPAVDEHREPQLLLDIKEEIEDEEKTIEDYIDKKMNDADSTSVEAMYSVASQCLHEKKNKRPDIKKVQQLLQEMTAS

One experiment has as its target GST tagged IRAK-4 (Homo sapiens (Human), UniProt Q9NWZ3). The experiment is described as follows: IRAK-4 Kinase Assay (IMAP fluorescence polarization). The experiment is classed as biochemical. To be noted: 100 μM ATP, 30 minutes at 25° C. Here is the method:
The kinase activity of IRAK-4 is determined by its ability to catalyze the phosphorylation of a fluorescent polypeptide substrate. The extent of phosphorylation is measured using the IMAP technology (Molecular Devices) where the phosphorylated fluorescent substrate binds to the large M(III)-based nanoparticles which reduces the rotational speed of the substrate and thus increases its fluorescent polarization (FP).
20 μl reaction mixture contains 10 mM TriHCl, pH 7.2, 0.5 nM GST tagged IRAK-4 (SignalChem), 100 nM fluorescent peptide substrate (RP7030, Molecular Devices), 100 μM ATP, 1 mM DTT, 1 mM MgCl2, and 0.01% Tween 20. The reaction is initiated by the addition of ATP. After incubation for 30 minutes at 25° C., 60 μl of Progressive IMAP Reagent (Molecular Devices) is added to stop the reaction. Change in RP7030's FP is determined by a FP reader (Analyst HT, LH, BioSystems).
In general terms: In fluorescence polarisation assays a small probe gives low polarisation when free and higher when bound to something large.
As to `CNS(=O)(=O)c1ccc(-c2cc(NC(=O)c3cnn4cccnc34)n(-c3ccc(F)cc3F)n2)cc1` [Example 34, N-(1-(2,4-difluorophenyl)-3-(4-(N-methylsulfamoyl)phenyl)-1H-pyrazol-5-yl)pyrazolo[1,5-a]pyrimidine-3-carboxamide], the pIC50 is more than 7.00.

The compound `Cc1ccc(-n2nc(C3CCN(C(C)C)CC3)cc2NC(=O)c2cnn3cccnc23)cc1` [Example 37, N-(3-(1-isopropylpiperidin-4-yl)-1-(p-tolyl)-1H-pyrazol-5-yl)pyrazolo[1,5-a]pyrimidine-3-carboxamide] showed a negative-log IC50 (pIC50) of more than 7.00.

`Cc1ccc(-n2nc(C3CCN(C4CCC4)CC3)cc2NC(=O)c2cnn3cccnc23)cc1` [Example 38, N-(3-(1-cyclobutylpiperidin-4-yl)-1-(p-tolyl)-1H-pyrazol-5-yl)pyrazolo[1,5-a]pyrimidine-3-carboxamide] gave a pIC50 of more than 7.00.

For the compound `Cc1ccc(-n2nc(C3CCN(C4CC4)CC3)cc2NC(=O)c2cnn3cccnc23)cc1` [Example 40, N-(3-(1-cyclopropylpiperidin-4-yl)-1-(p-tolyl)-1H-pyrazol-5-yl)pyrazolo[1,5-a]pyrimidine-3-carboxamide], the pIC50 was more than 7.00.

Turning to `Cc1ccc(-n2nc(C3CCN(CC(F)(F)F)CC3)cc2NC(=O)c2cnn3cccnc23)cc1` [Example 41, N-(1-(p-tolyl)-3-(1-(2,2,2-trifluoroethyl)piperidin-4-yl)-1H-pyrazol-5-yl)pyrazolo[1,5-a]pyrimidine-3-carboxamide], the pIC50 was more than 7.00.

Consider `COc1ccc(-n2nc(C3CCN(C(C)C)CC3)cc2NC(=O)c2cnn3cccnc23)cc1` [Example 47, N-(3-(1-isopropylpiperidin-4-yl)-1-(4-methoxyphenyl)-1H-pyrazol-5-yl)pyrazolo[1,5-a]pyrimidine-3-carboxamide], for which the negative-log IC50 (pIC50) is more than 7.00.

For `O=C(Nc1cc(C2CCN(C3CCC3)CC2)nn1-c1ccc(F)cc1F)c1cnn2cccnc12` [Example 49, N-(3-(1-cyclobutylpiperidin-4-yl)-1-(2,4-difluorophenyl)-1H-pyrazol-5-yl)pyrazolo[1,5-a]pyrimidine-3-carboxamide], the pIC50 is more than 7.00.

In turn, `O=C(Nc1cc(C2CCN(C3CCC3)CC2)nn1-c1ccc(Cl)cc1F)c1cnn2cccnc12` [Example 51, N-(1-(4-chloro-2-fluorophenyl)-3-(1-cyclobutylpiperidin-4-yl)-1H-pyrazol-5-yl)pyrazolo[1,5-a]pyrimidine-3-carboxamide] showed a pIC50 of more than 7.00.

`O=C(Nc1cc(C2CCNCC2)nn1-c1ccc(C2CC2)cc1)c1cnn2cccnc12` [Example 52, N-(1-(4-cyclopropylphenyl)-3-(piperidin-4-yl)-1H-pyrazol-5-yl)pyrazolo[1,5-a]pyrimidine-3-carboxamide] had a pIC50 of more than 7.00.

Take `CS(=O)(=O)N1CCC(c2cc(NC(=O)c3cnn4cccnc34)n(-c3ccc(C4CC4)cc3)n2)CC1` [Example 53, N-(1-(4-cyclopropylphenyl)-3-(1-(methylsulfonyl)piperidin-4-yl)-1H-pyrazol-5-yl)pyrazolo[1,5-a]pyrimidine-3-carboxamide]: the pIC50 is more than 7.00.

`CC(C)N1CCC(c2cc(NC(=O)c3cnn4cccnc34)n(-c3ccc(C4CC4)cc3)n2)CC1` [Example 55, N-(1-(4-cyclopropylphenyl)-3-(1-isopropylpiperidin-4-yl)-1H-pyrazol-5-yl)pyrazolo[1,5-a]pyrimidine-3-carboxamide] showed a pIC50 of more than 7.00.

`Cc1ccc(-n2nc(C3CCNCC3)cc2NC(=O)c2cnn3cccnc23)c(F)c1` [Example 56, N-(1-(2-fluoro-4-methylphenyl)-3-(piperidin-4-yl)-1H-pyrazol-5-yl)pyrazolo[1,5-a]pyrimidine-3-carboxamide] gave a negative logarithm of the IC50 (pIC50) of more than 7.00.

`Cc1ccc(-n2nc(C3CCN(S(C)(=O)=O)CC3)cc2NC(=O)c2cnn3cccnc23)c(F)c1` [Example 57, N-(1-(2-fluoro-4-methylphenyl)-3-(1-(methylsulfonyl)piperidin-4-yl)-1H-pyrazol-5-yl)pyrazolo[1,5-a]pyrimidine-3-carboxamide] showed a pIC50 of more than 7.00.

`Cc1ccc(-n2nc(C3CCN(C(C)C)CC3)cc2NC(=O)c2cnn3cccnc23)c(F)c1` [Example 58, N-(1-(2-fluoro-4-methylphenyl)-3-(1-isopropylpiperidin-4-yl)-1H-pyrazol-5-yl)pyrazolo[1,5-a]pyrimidine-3-carboxamide] gave a negative logarithm of the IC50 (pIC50) of more than 7.00.

Consider `Cc1ccc(-n2nc(C3CCN(C4CCC4)CC3)cc2NC(=O)c2cnn3cccnc23)c(F)c1` [Example 59, N-(3-(1-cyclobutylpiperidin-4-yl)-1-(2-fluoro-4-methylphenyl)-1H-pyrazol-5-yl)pyrazolo[1,5-a]pyrimidine-3-carboxamide], for which the pIC50 was more than 7.00.

Turning to `COc1ccc(-n2nc(C3CCNCC3)cc2NC(=O)c2cnn3cccnc23)c(F)c1` [Example 61, N-(1-(2-fluoro-4-methoxyphenyl)-3-(piperidin-4-yl)-1H-pyrazol-5-yl)pyrazolo[1,5-a]pyrimidine-3-carboxamide], the pIC50 is more than 7.00.

`COc1ccc(-n2nc(C3CCN(C(C)C)CC3)cc2NC(=O)c2cnn3cccnc23)c(F)c1` [Example 62, N-(1-(2-fluoro-4-methoxyphenyl)-3-(1-isopropylpiperidin-4-yl)-1H-pyrazol-5-yl)pyrazolo[1,5-a]pyrimidine-3-carboxamide] gave a pIC50 of more than 7.00.

With `COc1ccc(-n2nc(C3CCN(S(=O)(=O)C4CC4)CC3)cc2NC(=O)c2cnn3cccnc23)c(F)c1` [Example 63, N-(3-(1-(cyclopropylsulfonyl)piperidin-4-yl)-1-(2-fluoro-4-methoxyphenyl)-1H-pyrazol-5-yl)pyrazolo[1,5-a]pyrimidine-3-carboxamide], the pIC50 is more than 7.00.

Take `COc1ccc(-n2nc(C3CCN(S(C)(=O)=O)CC3)cc2NC(=O)c2cnn3cccnc23)c(F)c1` [Example 64, N-(1-(2-fluoro-4-methoxyphenyl)-3-(1-(methylsulfonyl)piperidin-4-yl)-1H-pyrazol-5-yl)pyrazolo[1,5-a]pyrimidine-3-carboxamide]: the pIC50 was more than 7.00.

Still in this experiment, the particulars now being: 100 μM ATP, 30 minutes at 25° C.; μM.
`Cc1ccc(-n2nc(C3CCN(C(N)=O)CC3)cc2NC(=O)c2cnn3cccnc23)cc1` [Example 35, N-(3-(1-carbamoylpiperidin-4-yl)-1-(p-tolyl)-1H-pyrazol-5-yl)pyrazolo[1,5-a]pyrimidine-3-carboxamide]: the IC50 is less than 1 µM.

`Cc1ccc(-n2nc(C3CCN(C)CC3)cc2NC(=O)c2cnn3cccnc23)cc1` [Example 36, N-(3-(1-methylpiperidin-4-yl)-1-(p-tolyl)-1H-pyrazol-5-yl)pyrazolo[1,5-a]pyrimidine-3-carboxamide] registered an IC50 of less than 1 µM.

`Cc1ccc(-n2nc(C3CCCNC3)cc2NC(=O)c2cnn3cccnc23)cc1` (stereo not drawn) [Example 42, N-(3-(piperidin-3-yl)-1-(p-tolyl)-1H-pyrazol-5-yl)pyrazolo[1,5-a]pyrimidine-3-carboxamide] showed an IC50 of less than 1 µM.

`Cc1ccc(-n2nc(C3CCCN(S(C)(=O)=O)C3)cc2NC(=O)c2cnn3cccnc23)cc1` (stereo not drawn) [Example 43, N-(3-(1-(methylsulfonyl)piperidin-3-yl)-1-(p-tolyl)-1H-pyrazol-5-yl)pyrazolo[1,5-a]pyrimidine-3-carboxamide] came in with an IC50 of less than 1 µM.

As for `Cc1ccc(-n2nc(C3CCCN(S(=O)(=O)C4CC4)C3)cc2NC(=O)c2cnn3cccnc23)cc1` (stereo not drawn) [Example 44, N-(3-(1-(cyclopropylsulfonyl)piperidin-3-yl)-1-(p-tolyl)-1H-pyrazol-5-yl)pyrazolo[1,5-a]pyrimidine-3-carboxamide], the IC50 is less than 1 µM.

Turning to `Cc1ccc(-n2nc(CC3CCOCC3)cc2NC(=O)c2cnn3cccnc23)cc1` [Example 45, N-(3-((tetrahydro-2H-pyran-4-yl)methyl)-1-(p-tolyl)-1H-pyrazol-5-yl)pyrazolo[1,5-a]pyrimidine-3-carboxamide], the IC50 was less than 1 µM.

Compound `Cc1ccc(-n2nc(C3CCOCC3)cc2NC(=O)c2cnn3cccnc23)cc1` [Example 46, N-(3-(tetrahydro-2H-pyran-4-yl)-1-(p-tolyl)-1H-pyrazol-5-yl)pyrazolo[1,5-a]pyrimidine-3-carboxamide] showed an IC50 of less than 1 µM.

In the case of `CN1CCC(c2cc(NC(=O)c3cnn4cccnc34)n(-c3ccc(F)cc3F)n2)CC1` [Example 48, N-(1-(2,4-difluorophenyl)-3-(1-methylpiperidin-4-yl)-1H-pyrazol-5-yl)pyrazolo[1,5-a]pyrimidine-3-carboxamide], the IC50 is less than 1 µM.

`CN1CCC(c2cc(NC(=O)c3cnn4cccnc34)n(-c3ccc(Cl)cc3F)n2)CC1` [Example 50, N-(1-(4-chloro-2-fluorophenyl)-3-(1-methylpiperidin-4-yl)-1H-pyrazol-5-yl)pyrazolo[1,5-a]pyrimidine-3-carboxamide] registered a half-maximal inhibitory concentration (IC50) of less than 1 µM.

Take `O=C(Nc1cc(C2CCN(S(=O)(=O)C3CC3)CC2)nn1-c1ccc(C2CC2)cc1)c1cnn2cccnc12` [Example 54, N-(1-(4-cyclopropylphenyl)-3-(1-(cyclopropylsulfonyl)piperidin-4-yl)-1H-pyrazol-5-yl)pyrazolo[1,5-a]pyrimidine-3-carboxamide]: the IC50 is less than 1 µM.

With `Cc1ccc(-n2nc(C3CCNCC3)cc2NC(=O)c2cnn3cccnc23)c(Cl)c1` [Example 65, N-(1-(2-chloro-4-methylphenyl)-3-(piperidin-4-yl)-1H-pyrazol-5-yl)pyrazolo[1,5-a]pyrimidine-3-carboxamide], the half-maximal inhibitory concentration (IC50) was less than 1 µM.
